# In article PMC5048659 (Arthritis Research & Therapy, 2016):
# “Also recorded” adds a separate entry of the source.
# Legend:
# [1] = molecular target: T1, OAT4 (Homo sapiens, UniProt Q9NSA0); assay: OAT4 urate transport assay in stably transfected HEK293 cells; assay type: cell-based; conditions: 100 μM 14C-urate, 10 min, OAT4-551G cells; mean ± SEM, three experiments; read-out: Potency (IC50) against OAT4
# T1 sequence (Q9NSA0 with tags, fused parts or gaps): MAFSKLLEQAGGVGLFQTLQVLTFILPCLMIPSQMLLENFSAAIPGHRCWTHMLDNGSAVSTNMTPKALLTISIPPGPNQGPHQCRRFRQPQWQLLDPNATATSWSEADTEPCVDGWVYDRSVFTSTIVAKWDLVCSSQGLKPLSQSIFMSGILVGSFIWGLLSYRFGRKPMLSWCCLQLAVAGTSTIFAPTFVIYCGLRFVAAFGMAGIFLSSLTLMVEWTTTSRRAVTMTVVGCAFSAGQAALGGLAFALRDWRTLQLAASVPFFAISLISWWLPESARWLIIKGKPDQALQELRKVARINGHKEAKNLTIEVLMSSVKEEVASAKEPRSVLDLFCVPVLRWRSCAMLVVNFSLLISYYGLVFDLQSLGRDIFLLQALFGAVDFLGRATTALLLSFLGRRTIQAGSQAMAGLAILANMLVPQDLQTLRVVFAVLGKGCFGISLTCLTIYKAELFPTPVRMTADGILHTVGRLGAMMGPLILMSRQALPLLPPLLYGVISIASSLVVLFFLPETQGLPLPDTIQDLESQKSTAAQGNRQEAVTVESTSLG
# Protocol: Stably transfected HEK293-OAT4-551G cells were used for OAT4 transport activity assays, which were grown for several weeks in media (DMEM with 10 % fetal bovine serum and 1 mM sodium pyruvate) containing 500 μg/mL geneticin sulfate. An isolated clone with high OAT4 activity was selected for activity assays. One day prior to the assay, cells were plated at 200,000 cells/well into each well of white, clear bottom poly-D-lysine-coated assay plates (BD Biosciences).
# The cells were assayed on the following day. […] The free urate was removed by aspiration and the cells rinsed three times in 150 μL wash buffer. The cells were then subjected to liquid scintillation counting to measure transported urate. […] Each point represents the mean and standard error of the mean (SEM) from triplicates.
# [2] = molecular target: T2, GLUT9 (SLC2A9v2/GLUT9ΔN) (Homo sapiens, UniProt Q9NRM0); assay: GLUT9 urate transport in cRNA-injected oocytes; assay type: cell-based
# T2 construct: expressed in transfected cells
# T2 sequence (Q9NRM0 1-511 isoform Q9NRM0-2): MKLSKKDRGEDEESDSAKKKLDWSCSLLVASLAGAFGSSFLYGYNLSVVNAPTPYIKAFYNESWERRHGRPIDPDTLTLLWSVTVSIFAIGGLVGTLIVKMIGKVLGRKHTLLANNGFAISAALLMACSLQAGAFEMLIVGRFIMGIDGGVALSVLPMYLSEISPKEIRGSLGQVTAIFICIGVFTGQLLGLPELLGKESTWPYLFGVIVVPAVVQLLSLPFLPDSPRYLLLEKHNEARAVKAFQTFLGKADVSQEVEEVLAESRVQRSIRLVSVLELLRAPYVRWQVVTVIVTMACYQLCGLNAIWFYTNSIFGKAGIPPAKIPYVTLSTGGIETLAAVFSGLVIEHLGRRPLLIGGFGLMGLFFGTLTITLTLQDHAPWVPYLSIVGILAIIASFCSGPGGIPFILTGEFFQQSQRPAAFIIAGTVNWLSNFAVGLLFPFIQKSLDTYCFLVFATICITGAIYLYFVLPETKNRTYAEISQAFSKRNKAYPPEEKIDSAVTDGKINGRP
# Protocol: For GLUT9, SLC2A9v2/GLUT9ΔN in pCMV6/neo was linearized with XmaI and NotI and cRNA transcribed using the mMessage mMachine T7 kit (Ambion). Oocytes were injected with either water or 25 ng cRNA and incubated for 3 to 5 days in ND96 buffer. For each point, 10 oocytes were incubated with 100 μM ^14C-uric acid in ND96 buffer with and without test compounds at room temperature for 60 minutes. The oocytes were then washed three to four times in ice-cold ND96 buffer and lysed prior to scintillation counting.
# [3] = tested on: HepG2 cells; assay: Mitochondrial toxicity assay (JC-1 mitochondrial membrane potential); assay type: cell-based, human
# Protocol: HepG2 cells were counted via hemocytometer and diluted into equal volumes of serum-free Opti-MEM (Life Technologies) and JC-1 Staining Solution (Sigma catalog number CS0390) at 300,000 cells/mL in the presence of 2.5 μg/mL JC-1. Cells were incubated at 37 °C and 5 % CO2 for 20 minutes, rinsed once with Hank's Balanced Salt Solution, and resuspended to the same concentration in serum-free Opti-MEM. Cells were then seeded into 96-well black-sided clear-bottom tissue culture plates at 30,000 cells/100 μL/well. Three replicates per experimental condition group were used. Compound was added with the final dimethyl sulfoxide (DMSO) concentration at 0.5 %. After 2 hours at 37 °C and 5 % CO2, medium was aspirated and plates were read on a Gemini EM spectrofluorometer (Molecular Devices). Fluorescence of JC-1 monomers was monitored by excitation at 490 nm and emission at 530 nm (green) and of aggregates by excitation at 525 nm and emission at 590 nm (red). The ratio of J-aggregates to monomers was calculated, with a lower ratio indicating increased cell toxicity. The percent change in mitochondrial membrane potential (Ψm) was calculated as follows: […]
# [4] = molecular target: T3, PPARγ (Homo sapiens, UniProt P37231); assay: Human PPARγ luciferase reporter assay; assay type: cell-based; conditions: reporter cells, 24 hours
# T3 sequence (P37231 238-505 limits assumed): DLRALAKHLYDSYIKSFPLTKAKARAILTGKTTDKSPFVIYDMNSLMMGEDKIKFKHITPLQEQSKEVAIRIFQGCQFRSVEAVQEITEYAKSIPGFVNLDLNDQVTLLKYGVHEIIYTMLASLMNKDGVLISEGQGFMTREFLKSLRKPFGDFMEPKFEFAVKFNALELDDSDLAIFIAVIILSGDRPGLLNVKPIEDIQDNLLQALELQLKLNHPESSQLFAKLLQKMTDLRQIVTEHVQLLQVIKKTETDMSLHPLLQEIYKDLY
# Protocol: This assay was performed using nonhuman mammalian cells engineered to provide a PPARγ-responsive luciferase reporter gene and constitutive, high levels of PPARγ (Indigo Biosciences catalog number IB00101). Cells were incubated with compounds for 24 hours, and then luciferase activity was measured using a luminometer. Agonist activity was reported as fold activation over a vehicle control. A positive control agonist, rosiglitazone, was included in each batch run to verify cell integrity.
# [5] = cited from earlier work
Compound,IC50 [1],"IC50 ([2]; 100 μM 14C-uric acid, 60 min, read-out: Potency against GLUT9)",Effect on GLUT9 urate transport ([2]; compound at up to 100 μM),"Lowest concentration reducing mitochondrial membrane potential ([3]; HepG2, 2 hours)","EC50 ([3]; Homo sapiens, HepG2, 2 hours, read-out: Half maximal effective concentration for reduction of mitochondrial membrane potential)",PPARγ activation ([4]; at 30 μM),Estimated plasma concentration [5],Urinary excretion [5],"Mitochondrial toxicity ([3]; HepG2, up to 300 μM)",PPARγ activation ([4]; at 300 μM),PPARγ activation ([4]; up to 100 μM)
CCc1oc2ccccc2c1C(=O)c1cc(Br)c(O)c(Br)c1 [Benzbromarone],3.19 ± 1.04 µM,~100 µM,only weak activity; also recorded: inhibited,0.4 µM,1.36 µM,strongly activated,0.016 to 0.16 µM,6%,,,
CCCN(CCC)S(=O)(=O)c1ccc(C(=O)O)cc1 [Probenecid],,,,,,,,,no mitochondrial toxicity,slight PPARγ activation,no activation
